Like-named read-outs stand apart in the source and are kept apart here.
Assays:
[1] = system: ZR-75-1 cells; experiment: FITC Annexin V / propidium iodide apoptosis assay, ZR-75-1; type: cell-based, human
Description: Figure 3 GO-203-induced apoptosis in HT-1080 and ZR-75-1 cells as assessed by FITC Annexin V (AnV) and propidium iodide (PI) double staining. (A–D) Flow cytometry histograms for the cells incubated for 4 h with 10 μM of GO-203 and the untreated (control) cells. (E–H) Apoptotic fractions in the GO-203-treated and untreated (control) cells as a function of incubation time and GO-203 concentration; color coding is explained in the legend. TEXT PRINTED IN THE PICTURE: (B) GO-203: HT-1080: IV.(1.90 %); HT-1080: III.(52.62 %); HT-1080: I.(19.45 %); HT-1080: II.(26.04 %) | (D) GO-203: ZR-75-1: IV.(8.19 %); ZR-75-1: III.(8.65 %); ZR-75-1: I.(37.84 %); ZR-75-1: II.(45.32 %)
Similarly fast apoptotic process is observed in ZR-75-1, although this cell line is less susceptible to the cytotoxic effect of GO-203. 4 h after administration of 10 μM dose, 39% of the cells remain healthy, 43% undergo early apoptosis, and 9% are in the late apoptosis stage. This proportion remains unchanged after 24 h. The fact that GO-203-induced apoptosis occurs rapidly in both sensitive and relatively insensitive cell lines is relevant in the context of its cytotoxic mechanism (discussed later in the text).
Also illustrated in Fig. 3G,H is the dose-dependent response of the treated cells. […] It is possible that apoptotic ZR-75-1 cells in quadrant II undergo disintegration instead of moving to quadrant III, Fig. 3D. Importantly, the Annexin V data are consistent with the results of the MTS assay which registers limited damage to the ZR-75-1 cells, see Fig. 2.
(§1) The adherent cells were rinsed with PBS, harvested using trypsin-EDTA solution and suspended in the growth medium. To analyze cell cycle phase distribution, 200 μg/ml of saponin (Fluka, USA), 250 μg/ml RNase A, and 50 μg/ml of propidium iodide (both Sigma-Aldrich, USA) were added to each sample tube, thus obtaining DNA stain buffer. After 1 h incubation at room temperature, the samples were analyzed by flow cytometry. To detect apoptosis by flow cytometry, CellEvent Caspase-3/7 Green Flow Cytometry Assay Kit (Thermo Fisher Scientific, USA) and Annexin-V FITC conjugate (BD Biosciences, USA) in combination with propidium iodide have been employed following the manufacturer’s protocols.
(§2) Cell fluorescence was measured using CytoFLEX (Beckman Coulter, USA) flow cytometer equipped with 3 lasers (405, 488 and 633 nm). Cells were gated on FSC/SSC to remove debris. Mean fluorescence intensity from 10,000 cells was acquired.

[2] = system: human fibrosarcoma cell line HT-1080; type: cell-based; settings: HT-1080
[3] = system: HT-1080 cells; experiment: Caspase 3/7 activation assay (CellEvent / SYTOX), HT-1080; type: cell-based, human; settings: 10 μM, 4 h, Fig. 4B
Text: A complementary perspective on GO-203-induced apoptosis is provided by the caspase 3/7 activation assay, Fig. 4. In both HT-1080 and ZR-75-1, the data offer a clear view of the early and late apoptotic populations. The time dependence illustrated in Fig. 4E,F confirms that the onset of apoptosis occurs sufficiently rapidly in both cell lines – by the time of flow-cytometry observations the system has already approached the steady state. In the literature there is some evidence that activation of executioner caspases may precede the translocation of phosphatidylserine to the outer leaf of the membrane. While this could be in principle relevant for comparison between the Annexin V assay and caspase activation assay, one should bear in mind that in our case both assays offer a snapshot of a fairly advanced apoptotic process.
Figure 4 GO-203-induced apoptosis in HT-1080 and ZR-75-1 cells as assessed by the double staining with CellEvent caspase-3/7 green detection reagent and vital dye SYTOX. (A–D) Flow cytometry histograms for the cells incubated for 4 h with 10 μM of GO-203 and the untreated (control) cells. (E–G) Apoptotic fractions in the GO-203-treated and untreated (control) cells as a function of incubation time and GO-203 concentration. TEXT PRINTED IN THE PICTURE: (B) GO-203: HT-1080: IV.(0.11 %); HT-1080: III.(64.49 %); HT-1080: I.(12.21 %); HT-1080: II.(23.20 %) | (D) GO-203: ZR-75-1: IV.(0.40 %); ZR-75-1: III.(35.18 %); ZR-75-1: I.(28.95 %); ZR-75-1: II.(35.47 %)
as §1, §2

[4] = 10 μM, 4 h, representative plot Fig. 3D
[5] = 10 μM, 4 h after administration

## [R]9CQCRRKN [GO-203, in clinical trials]
[1]; [4]
  quadrant I fraction (Annexin V/PI dot plot): 37.84%
  quadrant II fraction (Annexin V/PI dot plot): 45.32%
  quadrant III fraction (Annexin V/PI dot plot): 8.65%
  quadrant IV fraction (Annexin V/PI dot plot): 8.19%
[1]; [5]
  early apoptosis (Annexin V/PI): 43%
  late apoptosis stage (Annexin V/PI): 9%
[1]; 10 μM, 4 h after administration (unchanged after 24 h)
  healthy cells (Annexin V/PI): 39%
[1]; 20 μM
  viable cells at highest dose (Annexin V/PI): a large proportion of the cells remains viable
[2]; 1 × 5: single dose of 5 μM, 96 h
  Cell viability (MTS): essentially inconsequential
[2]; 1 × 10: single dose of 10 μM, 96 h
  Cell viability (MTS): nearly wipes out
[2]; 4/5: four daily doses of 5 μM with exchanged growth medium, 96 h
  Cell viability (MTS): inefficient
[2]; 4 × 5: four daily doses of 5 μM without exchanging growth medium, OD 492 nm 96 h after first application, duplicate or triplicate
  Cell viability (MTS): essentially complete cell death
[3]
  quadrant I fraction (caspase-3/7 / SYTOX): 12.21%
  quadrant II fraction (caspase-3/7 / SYTOX): 23.20%
  quadrant III fraction (caspase-3/7 / SYTOX): 64.49%
  quadrant IV fraction (caspase-3/7 / SYTOX): 0.11%
